In US6376506B1, “Sulfamide-metalloprotease inhibitors” (Syntex (U.S.A.) LLC, priority 1997, dated 2002):
Counter-ions that a name gives are not always drawn.

Legend:
[1] = target: T1, human collagenase-1 catalytic domain (Homo sapiens, UniProt P03956); test: MMP inhibition in vitro, human collagenase-1; assay type: biochemical; details: MCA-Pro-Leu-Gly-Leu-DPA-Ala-Arg-NH2 hydrolysis at 37° C.; read-out: Collagenase-I IC50
T1 construct: the collagenase-1 catalytic domain was released by treatment with 1 mM of aminophenylmercuric acetate (APMA); ubiquitin (cleaved yes); made in house; host or cells: E. coli
T1 sequence (P03956 100-269 limits assumed): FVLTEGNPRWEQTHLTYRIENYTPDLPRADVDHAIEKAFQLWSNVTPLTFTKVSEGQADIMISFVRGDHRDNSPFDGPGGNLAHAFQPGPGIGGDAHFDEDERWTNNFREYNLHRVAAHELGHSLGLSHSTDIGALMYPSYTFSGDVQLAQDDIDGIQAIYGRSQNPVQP
Experimental: The catalytic domain of human collagenase-1 was expressed as a fusion protein with ubiquitin in E. Coli as described in Gehring, E. R. et al., J. Biol. Chem., 270, 22507, (1995). After purification of the fusion protein, the collagenase-1 catalytic domain was released by treatment with 1 mM of aminophenylmercuric acetate (APMA) for 1 hour at 37° C. and then purified by zinc chelate chromatography.
(§1) The matrix metalloprotease inhibitory activity of compounds of this invention in vitro was determined based on the hydrolysis of MCA-Pro-Leu-Gly-Leu-DPA-Ala-Arg-NH2 (Bachem, Inc.) at 37° C. as described in Knight, C. G., et al., FEBS Lett., 296, 263-266 (1992).
(§2) The matrix metalloprotease enzyme was diluted with assay buffer (50 mM Tricine pH 7.5, 200 mM NaCl, 10 mM CaCl2, and 0.005% Brij-35) containing 10 μmole of above substrate dissolved in DMSO. Compounds of the invention dissolved in DMSO or only DMSO (control samples) were added such that the final DMSO concentration in all assays was 2.5%. The fluorescence changes were monitored with a Perkin-Elmer LS-50B flourimeter using an excitation wavelength of 328 nm and an emission wavelength of 393 nm.

[2] = target: T2, human collagenase-3 catalytic domain (Homo sapiens, UniProt P45452); test: MMP inhibition in vitro, human collagenase-3; assay type: biochemical; details: MCA-Pro-Leu-Gly-Leu-DPA-Ala-Arg-NH2 hydrolysis at 37° C.; read-out: Collagenase-III IC50
T2 construct: After purification, the catalytic domain was released by treatment with 1 mM APMA for 1 hour at 37° C; ubiquitin (N, cleaved yes); made in house; host or cells: E. coli
Experimental: The propeptide and catalytic domain portion of human collagcenase-3 was expressed in E. Coli as an N-terminal fusion protein with ubiquitin. After purification, the catalytic domain was released by treatment with 1 mM APMA for 1 hour at 37° C., and then purified by zinc chelate chromatography.
as §1, §2

SMILES	melting point	IC50 [1] [nM]	IC50 [2] [nM]
CC(C)(C)[C@@H](NS(=O)(=O)N1CCN(c2ccc(Cl)cc2)CC1)C(=S)NO [compound 62, N-hydroxy-2-(R)-{[4-(4-chlorophenyl)piperazine-1-sulfonyl]amino}-3-methyl-3-methylthiobutyramide]	158.5 to 159.6 °C		
O=C(c1ccc(Cl)cc1)C1CCN(S(=O)(=O)N2CCCC[C@@H]2C(=O)NO)CC1 [compound 242]	84.4 to 86.4 °C	67	0.063
COCCN(CC(=O)NO)S(=O)(=O)N1CCN(c2ccc(Cl)cc2)CC1 [compound 16]		22000	21
CC(C)[C@@H](NS(=O)(=O)N1CCN(c2ccc(Cl)cn2)CC1)C(=O)NO [compound 50, N-hydroxy-2-(R)-{[4-(5-chloropyridin-2yl)piperazine-1-sulfonyl]amino}-3-methylbutyramide]	146.7 to 147 °C	220	1.3
C[C@@H](NS(=O)(=O)N1CCN(c2ccc(Cl)cc2)CC1)C(=O)O [compound 414]		> 50000	3400
C[C@@H](NS(=O)(=O)N1CCC(C(=O)c2ccc(Oc3ccccc3)cc2)CC1)C(=O)NO [compound 148, N-hydroxy-2-(R)-{[4-(4-phenoxybenzoyl)piperidine-1-sulfonyl]amino}propionamide]	202 to 205 °C		
CC(=O)N1CCN(S(=O)(=O)N2CCC(C(=O)c3ccc(Cl)cc3)CC2)C(C(=O)NO)C1 (racemic) [compound 255]		120	0.19
CN(C)C(=O)N1CCN(S(=O)(=O)N2CCC(C(=O)c3ccc(Cl)cc3)CC2)[C@@H](C(=O)NO)C1 [compound 298]		130	0.2
C[C@H](NS(=O)(=O)N1CCC(C(=O)c2ccc(Cl)cc2)CC1)C(=O)NO [compound 125, N-hydroxy-2-(S)-{[4-(4-chlorobenzoyl)piperidine-1-sulfonyl]amino}propionamide]	201.2 to 201.8 °C		
C[C@@H](NS(=O)(=O)N1CCC(Oc2ccc(Cl)cc2)CC1)C(=O)NO [compound 57, N-hydroxy-2-(R)-{[4-(4-chlorophenoxy)piperidine-1-sulfonyl]amino}propionamide]	93 to 94 °C		
O=C(NO)C1(NS(=O)(=O)N2CCN(c3ccc(Cl)cc3)CC2)CCOCC1 [compound 339, N-hydroxy-4-{[4-(4-chlorophenyl)piperazine-1-sulfonyl]amino}tetrahydropyran-4-carboxamide]	192.5 to 192.7 °C		
CC(C)[C@H](C(=O)NO)N(CCCc1cccnc1)S(=O)(=O)N1CCC(Oc2ccc(Br)cc2)CC1 [compound 105]		129	0.59
N#Cc1ccc2[nH]cc(C3CCN(S(=O)(=O)N4CCCC[C@@H]4C(=O)NO)CC3)c2c1 [compound 294]		> 50000	340
O=CN1CCN(S(=O)(=O)N2CCC(C(=O)c3ccc(Cl)cc3)CC2)C(C(=O)NO)C1 (racemic) [compound 262]		88	0.13
O=C(NO)[C@@H](Cc1ccc(O)cc1)NS(=O)(=O)N1CCN(c2ccc(Cl)cn2)CC1 [compound 103, N-hydroxy-2-(R)-{[4-(5-chloropyridin-2-yl)piperazine-1-sulfonyl]amino}-3-(4-hydroxyphenyl)propionamide]	142 °C		
CN(Cc1ccccc1)S(=O)(=O)N(CC(=O)O)Cc1ccccc1 [compound 430]		2200	890
O=C(NO)C1CCCCN1S(=O)(=O)N1CCC(c2c[nH]c3ccc(F)cc23)CC1 (racemic) [compound 254]		> 50000	181
C[C@H](C(=O)O)N(Cc1ccccc1)S(=O)(=O)NCc1ccccc1 [compound 431]		> 50000	6500
C[C@@H](NS(=O)(=O)N1CCN(C(=O)Nc2ccc(Cl)cc2)CC1)C(=O)NO [compound 177, N-hydroxy-2-(R)-{[4-(4-chlorophenylaminocarbonyl)piperazine-1-sulfonyl]amino}propionamide]		9300	1.6

Now from value to molecule:

melting point	IC50 [1] [nM]	IC50 [2] [nM]	SMILES
124.5 to 125.5 °C			O=C(NO)C1(NS(=O)(=O)N2CCC(Oc3ccccc3)CC2)CCCC1 [compound 337, N-hydroxy-1-{[(4-phenoxy)piperidine-1-sulfonyl]amino}cyclopentane-1-carboxamide]
185.7 to 186.7 °C			CC(C)(NS(=O)(=O)N1CCC(C(=O)c2ccc(Cl)cc2)CC1)C(=O)NO [compound 351, N-hydroxy-2-{[4-(4-chlorobenzoyl)piperidine-1-sulfonyl]amino}-2-methylpropionamide]
119 to 122 °C			C[C@@H](NS(=O)(=O)N1CCN(C(=O)Nc2ccc(Oc3ccccc3)cc2)CC1)C(=O)NO [compound 213, N-hydroxy-2-(R)-{[4-(4-phenoxyphenylaminocarbonyl)piperazine-1-sulfonyl]amino}propionamide]
138.1 to 138.6 °C			O=C(CNS(=O)(=O)N1CCN(c2cccc(Cl)c2)CC1)NO [compound 33, N-hydroxy-2-{[4-(3-chlorophenyl)piperazine-1-sulfonyl]amino}acetamide]
141 to 142.3 °C	20000	18	CC(C)[C@@H](NS(=O)(=O)N1CCC(c2nc(-c3ccccc3)c[nH]2)CC1)C(=O)NO [compound 133]
80.6 to 85.7 °C	550	660	CC(C)[C@H](C(=O)NO)N(Cc1ccccc1)S(=O)(=O)N1CCCCC1 [compound 1, N-hydroxy-2-(R)-[benzyl-(piperdine-1-sulfonyl)amino]-3-methybutyramide]
209 to 211 °C (dec.)			CC(NS(=O)(=O)N1CCc2c([nH]c3ccccc23)C1)C(=O)[O-].[Na+] (stereo not shown)
67 to 70 °C			Cc1cc(C2=CCN(S(=O)(=O)N3CCN(C(=O)OCc4ccccc4)CC3C(=O)NO)CC2)ccc1F (racemic) [compound 381, N-hydroxy-4-benzyloxycarbonyl-1-[4-(4-fluoro-3-methylphenyl)-1,2,3,6-tetrahydropyridine-1-sulfonyl]piperazine-2-(RS)-carboxamide]
	650	56	CN(Cc1ccccc1)S(=O)(=O)N(CC(=O)NO)Cc1ccccc1 [compound 355]
90 to 92 °C			O=C(NO)[C@H](NS(=O)(=O)N1CCC(c2ccc(F)cc2)CC1)c1ccc(F)cc1 [compound 230, N-hydroxy-2-(R)-{[4-(4-fluorophenyl)piperidine-1-sulfonyl]amino}-2-(4-fluorophenyl)acetamide]
137.8 to 138.1 °C			O=C(NO)C1CCCCN1S(=O)(=O)N1CC=C(c2ccc(Cl)cc2)CC1 (racemic) [compound 375, N-hydroxy-1-[4-(4-chlorophenyl)-1,2,3,6-tetrahydropyridine-1-sulfonyl]piperidine-2-(RS)-carboxamide]
		0.1	CN(C)S(=O)(=O)N1CCN(S(=O)(=O)N2CCC(C(=O)c3ccc(Cl)cc3)CC2)[C@@H](C(=O)NO)C1 [compound 315]
142 to 144 °C			O=C(NO)[C@H]1CCCCN1S(=O)(=O)N1CCCC1 [compound 232, N-hydroxy-1-(pyrrolidine-1-sulfonyl)piperidine-2-(R)-carboxamide]
	170	2.1	O=C(NO)C1(NS(=O)(=O)N2CCN(c3ccc(Cl)cn3)CC2)CCCCC1 [compound 342]
171.1 to 171.4 °C			O=C(NO)[C@H](NS(=O)(=O)N1CCC(Oc2ccc(Cl)cn2)CC1)C1CCCCC1 [compound 207, N-hydroxy-2-(R)-{[4-(5-chloropyridin-2-yloxy)piperidine-1-sulfonyl]amino}-2-cyclohexylacetamide]
120 to 122.1 °C			CC(C)[C@@H](NS(=O)(=O)N1CCC(c2ncc(-c3ccccc3)s2)CC1)C(=O)NO [compound 136, N-hydroxy-2-(R)-{[4-(5-phenylthiazol-2-yl)piperidine-1-sulfonyl]amino}-3-methylbutyramide]
81 to 96 °C			CC(C)[C@@H](NS(=O)(=O)N1CCC(Oc2cccc(Cl)n2)CC1)C(=O)NO [compound 183, N-hydroxy-2-(R)-{[4-(6-chloropyridin-2-yloxy)piperidine-1-sulfonyl]amino}-3-methylbutyramide]
54.1 to 57.7 °C			COCCN(CC(=O)NO)S(=O)(=O)N1CCN(c2ccc(Cl)cc2)CC1 (as salt: TFA) [compound 16]
